Measurements: PMC12441791, “Structural modifications of toxyloxanthone C and macluraxanthone isolated from Maclura cochinchinensis: cytotoxicity, antibacterial activity, and in silico studies” (RSC Advances, 2025)
Values after ≈ are worked out from the molar mass of the structure shown. Read-outs that look alike come from different tables or passages of the source.

Assays:
[1] = test system: Vero (African green monkey kidney) cells; design: method as in PMID 35422182; conditions: parent xanthones, previous report, read-out: Cytotoxicity (IC50, μM) Vero; cited from earlier work
[2] = test system: Bacillus subtilis ATCC 6633; design: method as in PMID 35422182; conditions: parent xanthones, previous report; cited from earlier work
S. aureus ATCC 25923 [3] = test system: S. aureus ATCC 25923; design: method as in PMID 35422182; conditions: parent xanthones, previous report; cited from earlier work
[4] = test system: A549 (human lung carcinoma) cells; design: method as in PMID 35422182; conditions: parent xanthones, previous report, read-out: Cytotoxicity (IC50, μM) A549; cited from earlier work
[5] = test system: HelaS3 (human cervical carcinoma) cells; design: method as in PMID 35422182; conditions: parent xanthones, previous report, read-out: Cytotoxicity (IC50, μM) HelaS3; cited from earlier work
[6] = test system: Methicillin resistant Staphylococcus aureus (MRSA); design: method as in PMID 35422182; conditions: parent xanthones, previous report; cited from earlier work
[7] = test system: HepG2 (human hepatocellular carcinoma) cells; design: method as in PMID 35422182; conditions: parent xanthones, previous report, read-out: Cytotoxicity (IC50, μM) HepG2; cited from earlier work
[8] = test system: Bacillus cereus ATCC 11778; design: method as in PMID 35422182; conditions: parent xanthones, previous report; cited from earlier work
[9] = test system: HepG2 (human hepatocellular carcinoma) cells; assay: In vitro cytotoxicity, HepG2; type: cell-based
Experimental: (§1) All types of cancer and non-tumorigenic cells were purchased from ATCC. Cytotoxicity assays against human cervical carcinoma (HelaS3; ATCC CCL2-2), human hepatocellular carcinoma (HepG2; ATCC HB-8065), human lung carcinoma (A549; ATCC CCL-185), and African green monkey kidney (Vero; ATCC CCL-81) cell lines were performed by […].[44] Cells proliferation was performed using the MTT colorimetric assay,[44] as in our previous publication.[4]

[10] = In vitro cytotoxicity, Vero normal cells; type: cell-based, African green monkey; conditions: African green monkey, Vero cells (kidney, non-tumorigenic)
Experimental: as §1

[11] = test system: Vero (African green monkey kidney) cells; assay: In vitro cytotoxicity, Vero normal cells; type: cell-based
Experimental: as §1

[12] = test system: Bacillus cereus ATCC 11778; assay: Antibacterial microdilution MIC, B. cereus; type: cell-based
Experimental: (§2) Four bacterial cultures Bacillus cereus ATCC 11778, Bacillus subtilis ATCC 6633, Staphylococcus aureus ATCC 25923, and Methicillin resistant Staphylococcus aureus (MRSA) were employed as the test organisms. Minimum inhibitory concentration (MIC) values were determined using the dilution method, as described in the M07-A9,[45] as described in our previous paper.[4,46]

S. aureus ATCC 25923 [13] = assay: Antibacterial microdilution MIC, S. aureus; type: cell-based; conditions: Staphylococcus aureus
Experimental: as §2

[14] = test system: HelaS3 (human cervical carcinoma) cells; assay: In vitro cytotoxicity, HelaS3; type: cell-based; conditions: HeLa S3
Experimental: as §1

[15] = test system: MRSA, S. aureus, B. subtilis, and B. cereus; assay: Antibacterial activity stated over all four Gram-positive strains; type: cell-based; conditions: for MIC / MIC against all bacterial strains tested: MRSA, S. aureus, B. subtilis, B. cereus taken together; for MIC: read-out: MIC against all bacterial strains tested; for fold improvement in antibacterial potency (MIC) compared to parent 1: all bacterial strains
Experimental: as §2

[16] = test system: Methicillin resistant Staphylococcus aureus (MRSA); assay: Antibacterial microdilution MIC, MRSA; type: cell-based; conditions: read-out: MIC MRSA
Experimental: as §2

[17] = test system: Bacillus subtilis ATCC 6633; assay: Antibacterial microdilution MIC, B. subtilis; type: cell-based
Experimental: as §2

[18] = test system: HelaS3, A549, and HepG2 cancer cell lines; assay: Cytotoxicity stated over the three cancer cell lines; type: cell-based, human; conditions: HelaS3, A549, HepG2 taken together; for IC50: Homo sapiens, read-out: Cytotoxicity against three cancer cell lines (IC50 values, range over lines)
Experimental: as §1

[19] = test system: A549 (human lung carcinoma) cells; assay: In vitro cytotoxicity, A549; type: cell-based
Experimental: as §1

[20] = ATCC11778, microdilution method, ATCC 11778, read-out: MIC B. cereus
[21] = ATCC25923, microdilution method, ATCC 25923, read-out: MIC S. aureus
[22] = ATCC6633, microdilution method, ATCC 6633, read-out: MIC B. subtilis

| SMILES | IC50 [9] [µM] | IC50 [10] [µM] | MIC [12, 20] [µg/mL] | MIC (S. aureus ATCC 25923 [13]; [21]) [µg/mL] | IC50 [14] [µM] | MIC ([16]; microdilution method) [µg/mL] | MIC [17, 22] [µg/mL] | IC50 [19] [µM] | other results |
| --- | --- | --- | --- | --- | --- | --- | --- | --- | --- |
| CC1Oc2cc3oc4c(O)c(O)ccc4c(=O)c3c(O)c2C1(C)C (centres unmarked) [Compound 1, Toxyloxanthone C] | – | – | – | – | – | – | – | – | IC50 [1]: 8.52 ± 0.64 µM; MIC B. subtilis [2]: 128 µg/mL (≈ 390 µM); MIC S. aureus (S. aureus ATCC 25923 [3]): 128 µg/mL (≈ 390 µM); IC50 [4]: 21.8 ± 4.89 µM; IC50 [5]: 13.6 ± 1.11 µM; MIC MRSA [6]: 128 µg/mL (≈ 390 µM); IC50 [7]: 20.8 ± 2.57 µM; MIC B. cereus [8]: 128 µg/mL (≈ 390 µM) |
| CC(=O)Oc1ccc2c(=O)c3c(O)c4c(cc3oc2c1OC(C)=O)OC(C)C4(C)C (centres unmarked) [Compound 1a, 5,6-Diacetoxytoxyloxanthone C] | 21.1 ± 1.18 | > 100 | 4 (≈ 9.7 µM) | 4 (≈ 9.7 µM) | 22.6 ± 2.02 | 4 (≈ 9.7 µM) | 4 (≈ 9.7 µM) | 12.2 ± 1.08 | Cytotoxicity (IC50, μM) Vero [11]: without showing cytotoxicity; MIC [15]: 4 µg/mL (≈ 9.7 µM); fold improvement in antibacterial potency (MIC) compared to parent 1 [15]: 32 fold; IC50 [18]: 12.2 to 22.6 µM |
| CCCCC(=O)Oc1ccc2c(=O)c3c(OC(=O)CCCC)c4c(cc3oc2c1OC(=O)CCCC)OC(C)C4(C)C (centres unmarked) [Compound 1b, 1,5,6-Tripentanoyloxytoxyloxanthone C] | 17.2 ± 4.5 | 5.59 ± 0.36 | 16 (≈ 27.6 µM) | 8 (≈ 13.8 µM) | 20.5 ± 4.92 | 8 (≈ 13.8 µM) | 8 (≈ 13.8 µM) | 5.77 ± 2.14 | Cytotoxicity (IC50, μM) Vero [11]: strong cytotoxicity; MIC [15]: 8 to 16 µg/mL (≈ 13.8 to 27.6 µM) |
| CC1Oc2cc3oc4c(OS(C)(=O)=O)c(OS(C)(=O)=O)ccc4c(=O)c3c(O)c2C1(C)C (centres unmarked) [Compound 1c, 5,6-Dimesyloxytoxyloxanthone C] | > 100 | > 100 | > 128 | > 128 | 65.3 ± 3.92 | > 128 | > 128 | > 100 | MIC against all bacterial strains tested [15]: no antibacterial activity |
| COc1ccc2c(=O)c3c(O)c4c(cc3oc2c1OC)OC(C)C4(C)C (centres unmarked) [Compound 1d, 5,6-Dimethoxytoxyloxanthone C] | > 100 | > 100 | > 128 | > 128 | > 100 | > 128 | > 128 | > 100 | MIC against all bacterial strains tested [15]: no antibacterial activity; Cytotoxicity against three cancer cell lines (IC50 values, range over lines) [18]: no cytotoxicity |
| CCOc1ccc2c(=O)c3c(O)c4c(cc3oc2c1OCC)OC(C)C4(C)C (centres unmarked) [Compound 1e, 5,6-Diethoxytoxyloxanthone C] | > 100 | > 100 | > 128 | > 128 | 50.4 ± 8.45 | > 128 | > 128 | > 100 | MIC against all bacterial strains tested [15]: no antibacterial activity |
| CC1Oc2c(c(O)c3c(=O)c4ccc(O)c(O)c4oc3c2Br)C1(C)C (centres unmarked) [Compound 1f, 4-Bromotoxyloxanthone C] | 19.4 ± 1.52 | 9.52 ± 1.02 | 4 (≈ 9.82 µM) | 4 (≈ 9.82 µM) | 17.4 ± 1.75 | 4 (≈ 9.82 µM) | 4 (≈ 9.82 µM) | 7.52 ± 0.36 | Cytotoxicity (IC50, μM) Vero [11]: cytotoxic toward normal cells; MIC [15]: 4 µg/mL (≈ 9.82 µM); fold improvement in antibacterial potency (MIC) compared to parent 1 [15]: 32 fold |
| C=CC(C)(C)c1c2c(c(O)c3c(=O)c4ccc(O)c(O)c4oc13)C=CC(C)(C)O2 [Compound 2, Macluraxanthone] | – | – | – | – | – | – | – | – | IC50 [1]: 4.29 ± 0.6 µM; MIC B. subtilis [2]: 64 µg/mL (≈ 162 µM); MIC S. aureus (S. aureus ATCC 25923 [3]): >128 µg/mL; IC50 [4]: 6.46 ± 0.98 µM; IC50 [5]: 1.59 ± 0.12 µM; MIC MRSA [6]: 16 µg/mL (≈ 40.6 µM); IC50 [7]: 5.26 ± 0.41 µM; MIC B. cereus [8]: 64 µg/mL (≈ 162 µM) |
| C=CC(C)(C)c1c2c(c(O)c3c(=O)c4ccc(OC(C)=O)c(OC(C)=O)c4oc13)C=CC(C)(C)O2 [Compound 2a, 5,6-Diacetoxymacluraxanthone] | 24.5 ± 2.98 | 10.1 ± 1.67 | 16 (≈ 33.4 µM) | 16 (≈ 33.4 µM) | 25.6 ± 4.77 | 8 (≈ 16.7 µM) | 32 (≈ 66.9 µM) | 15.7 ± 1.17 | MIC [15]: 8 to 32 µg/mL (≈ 16.7 to 66.9 µM); IC50 [18]: 15.7 to 25.6 µM |
| C=CC(C)(C)c1c2c(c(OC(=O)CCCC)c3c(=O)c4ccc(OC(=O)CCCC)c(OC(=O)CCCC)c4oc13)C=CC(C)(C)O2 [Compound 2b, 1,5,6-Tripentanoyloxymacluraxanthone] | > 100 | 36 ± 2.32 | > 128 | > 128 | 55.3 ± 2.18 | > 128 | > 128 | 41.8 ± 1.91 | – |
| C=CC(C)(C)c1c2c(c(O)c3c(=O)c4ccc(OS(C)(=O)=O)c(OS(C)(=O)=O)c4oc13)C=CC(C)(C)O2 [Compound 2c, 5,6-Dimesyloxymacluraxanthone] | > 100 | > 100 | > 128 | > 128 | 84.3 ± 7.86 | > 128 | > 128 | 48.8 ± 4.73 | – |
| C=CC(C)(C)c1c2c(c(O)c3c(=O)c4ccc(OC)c(OC)c4oc13)C=CC(C)(C)O2 [Compound 2d, 5,6-Dimethoxymacluraxanthone] | > 100 | > 100 | > 128 | > 128 | > 100 | > 128 | > 128 | > 100 | Cytotoxicity against three cancer cell lines (IC50 values, range over lines) [18]: no cytotoxicity |
| C=CC(C)(C)c1c2c(c(O)c3c(=O)c4ccc(O)c(OC)c4oc13)C=CC(C)(C)O2 [Compound 2e, 5-Methoxymacluraxanthone] | > 100 | > 100 | > 128 | > 128 | > 100 | > 128 | > 128 | 90.5 ± 6.23 | – |
| C=CC(C)(C)c1c2c(c(O)c3c(=O)c4ccc(OCC)c(OCC)c4oc13)C=CC(C)(C)O2 [Compound 2f, 5,6-Diethoxymacluraxanthone] | > 100 | > 100 | > 128 | > 128 | > 100 | > 128 | > 128 | > 100 | Cytotoxicity against three cancer cell lines (IC50 values, range over lines) [18]: no cytotoxicity |
| C=CC(C)(C)c1c2c(c(O)c3c(=O)c4ccc(O)c(OCC)c4oc13)C=CC(C)(C)O2 [Compound 2g, 5-Ethoxymacluraxanthone] | > 100 | > 100 | > 128 | > 128 | > 100 | > 128 | > 128 | > 100 | Cytotoxicity against three cancer cell lines (IC50 values, range over lines) [18]: no cytotoxicity |
| COc1cccc2c1C(=O)c1c(O)c3c(c(O)c1C2=O)C[C@@](O)(C(=O)CO)C[C@@H]3O[C@H]1C[C@H](N)[C@H](O)[C@H](C)O1 [Doxorubicin, reference compound] | 0.37 ± 0.02 | 1.95 ± 0.13 | – | – | 0.29 ± 0.02 | – | – | 0.48 ± 0.036 | – |
| CN[C@H](CC(C)C)C(=O)N[C@H]1C(=O)N[C@@H](CC(N)=O)C(=O)N[C@H]2C(=O)N[C@H]3C(=O)N[C@H](C(=O)N[C@H](C(=O)O)c4cc(O)cc(O)c4-c4cc3ccc4O)[C@H](O)c3ccc(c(Cl)c3)Oc3cc2cc(c3O[C@@H]2O[C@H](CO)[C@@H](O)[C@H](O)[C@H]2O[C@H]2C[C@](C)(N)[C@H](O)[C@H](C)O2)Oc2ccc(cc2Cl)[C@H]1O [Vancomycin, reference compound] | – | – | – | – | – | – | – | – | MIC ([12]; ATCC11778, read-out: MIC B. cereus): 1 µg/mL (≈ 0.69 µM); MIC (S. aureus ATCC 25923 [13]; ATCC25923, read-out: MIC S. aureus): 2 µg/mL (≈ 1.38 µM); MIC [16]: 2 µg/mL (≈ 1.38 µM); MIC ([17]; ATCC6633, read-out: MIC B. subtilis): 2 µg/mL (≈ 1.38 µM) |
